In US8975406B2, “Compound useful for the treatment of degenerative and inflammatory diseases” (Galapagos N.V., priority 2011, dated 2015):

How the values were obtained:
[1] = biological target: T1, Recombinant human TYK2 catalytic domain (Homo sapiens, UniProt P29597); experiment: TYK2 inhibition assay; type: biochemical; settings: polyGT substrate, 33P-gamma-ATP filter assay, 0.1 μM ATP
T1 construct: catalytic domain (amino acids 871-1187; catalog number 08-147); GST; purchased Carna Biosciences 08-147
T1 sequence (P29597 871-1187): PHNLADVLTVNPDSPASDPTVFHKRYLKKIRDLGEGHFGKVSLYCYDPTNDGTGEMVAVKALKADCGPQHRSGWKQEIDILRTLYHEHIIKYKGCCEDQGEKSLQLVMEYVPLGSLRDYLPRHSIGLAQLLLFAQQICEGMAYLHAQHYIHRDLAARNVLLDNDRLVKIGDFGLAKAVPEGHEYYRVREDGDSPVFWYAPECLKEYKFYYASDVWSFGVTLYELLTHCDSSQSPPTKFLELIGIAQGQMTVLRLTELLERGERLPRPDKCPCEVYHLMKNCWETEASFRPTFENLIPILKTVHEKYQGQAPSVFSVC
Experimental: Recombinant human TYK2 catalytic domain (amino acids 871-1187; catalog number 08-147) was purchased from Carna biosciences. 4 ng of TYK2 was incubated with 12.5 μg polyGT substrate (Sigma catalog number P0275) in kinase reaction buffer (25 mM Hepes pH 7.2, 50 mM NaCl, 0.5 mM EDTA, 1 mM DTT, 5 mM MnCl2, 10 mM MgCl2, 0.1% Brij-35, 0.1 μM non-radioactive ATP, 0.125 μCi ^33P-gamma-ATP (Perkin Elmer, catalog number NEG602K001MC) final concentrations) with or without 5 μL containing test compound or vehicle (DMSO, 1% final concentration), in a total volume of 25 μL, in a polypropylene 96-well plate (Greiner, V-bottom). After 90 min at 30° C., reactions were stopped by adding 25 μL/well of 150 mM phosphoric acid. All of the terminated kinase reaction was transferred to prewashed (75 mM phosphoric acid) 96 well filter plates (Perkin Elmer catalog number 6005177) using a cell harvester (Perkin Elmer). Plates were washed 6 times with 300 μL per well of a 75 mM phosphoric acid solution and the bottom of the plates was sealed. 40 μL/well of Microscint-20 was added, the top of the plates was sealed and readout was performed using the Topcount (Perkin Elmer). Kinase activity was calculated by subtracting counts per min (cpm) obtained in the presence of a positive control inhibitor (10 μM staurosporine) from cpm obtained in the presence of vehicle. The ability of a test compound to inhibit this activity was determined as: Percentage inhibition=((cpm determined for sample with test compound present−cpm determined for sample with positive control inhibitor)divided by(cpm determined in the presence of vehicle−cpm determined for sample with positive control inhibitor))*100.
Dose dilution series were prepared for the compounds enabling the testing of dose-response effects in the TYK2 assay and the calculation of the IC50 for each compound. Each compound was routinely tested at concentration of 20 μM followed by a ⅓ serial dilution, 8 points (20 μM-6.67 μM-2.22 μM-740 nM-247 nM-82 nM-27 nM-9 nM) in a final concentration of 1% DMSO. When potency of compound series increased, more dilutions were prepared and/or the top concentration was lowered (e.g. 5 μM, 1 μM).

Recombinant human JAK2 = biological target: T2, Recombinant human JAK2 (Homo sapiens, UniProt O60674); experiment: JAK2 Ulight-JAK1 peptide assay; type: biochemical; settings: Ulight-JAK1(tyr1023) peptide, 7.5 μM ATP
T2 construct: catalytic domain (amino acids 808-1132; catalog number PV4210); GST; purchased Invitrogen PV4210
Experimental: Recombinant human JAK2 (catalytic domain, amino acids […]; catalog number PV4210) was purchased from Invitrogen. 0.0125 mU of JAK2 was incubated with 25 nM Ulight-JAK1(tyr1023) peptide (Perkin Elmer catalog number TRF0121) in kinase reaction buffer (25 mM HEPES pH7.0, 0.01% Triton X-100, 7.5 mM MgCl2, 2 mM DTT, 7.5 μM ATP) with or without 4 μL containing test compound or vehicle (DMSO, 1% final concentration), in a total volume of 20 μL, in a white 384 Opti plate (Perkin Elmer, catalog number 6007290). After 60 min at room temperature, reactions were stopped by adding 20 μL/well of detection mixture (1× detection buffer (Perkin Elmer, catalog number CR97-100C), 0.5 nM Europium-anti-phosphotyrosine (PT66) (Perkin Elmer, catalog number AD0068), 10 mM EDTA). Readout is performed using the Envision with excitation at 320 nm and measuring emission at 615 nm (Perkin Elmer). Kinase activity was calculated by subtracting relative fluorescence units (RFU) obtained in the presence of a positive control inhibitor (10 μM staurosporine) from RFU obtained in the presence of vehicle. The ability of a test compound to inhibit this activity was determined as: Percentage inhibition=((RFU determined for sample with test compound present−RFU determined for sample with positive control inhibitor)divided by(RFU determined in the presence of vehicle−RFU determined for sample with positive control inhibitor))*100.
Dose dilution series were prepared for each compound enabling the testing of dose-response effects in the JAK2 assay and the calculation of the IC50 for the compound. Each compound is routinely tested at concentration of 20 μM followed by a ⅕ serial dilution, 10 points in a final concentration of 1% DMSO. When potency of compound series increases, more dilutions are prepared and/or the top concentration are lowered (e.g. 5 μM, 1 μM). The data are expressed as the average IC50 from the assays±standard error of the mean.

T2 sequence (O60674 808-1132): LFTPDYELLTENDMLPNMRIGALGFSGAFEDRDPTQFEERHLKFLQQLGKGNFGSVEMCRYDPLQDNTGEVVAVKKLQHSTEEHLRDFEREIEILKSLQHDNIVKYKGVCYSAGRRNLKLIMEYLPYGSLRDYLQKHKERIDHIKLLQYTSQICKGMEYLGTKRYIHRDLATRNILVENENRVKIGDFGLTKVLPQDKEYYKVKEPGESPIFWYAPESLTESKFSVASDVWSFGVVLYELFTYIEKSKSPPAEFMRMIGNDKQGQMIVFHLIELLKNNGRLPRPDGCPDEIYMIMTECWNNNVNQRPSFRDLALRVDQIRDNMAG

SMILES	IC50 [1] [nM]	IC50 (Recombinant human JAK2) [nM]
COc1ccc(-c2cccn3nc(NC(=O)C4CC4)cc23)cc1 [Compound 1, N-(4-(4-methoxyphenyl)pyrazolo[1,5-a]pyridin-2-yl)cyclopropanecarboxamide]	0.01 to 100	0.01 to 100
O=C(Nc1cc2c(-c3ccc(OCc4ccccc4)cc3)cccn2n1)C1CC1 [Compound 2, N-(4-(4-(benzyloxy)phenyl)pyrazolo[1,5-a]pyridin-2-yl)cyclopropanecarboxamide]	101 to 500	101 to 500
O=C(Nc1cc2c(-c3ccc4c(ccn4Cc4ccccc4)c3)cccn2n1)C1CC1 [Compound 3, N-(4-(1-benzyl-1H-indol-5-yl)pyrazolo[1,5-a]pyridin-2-yl)cyclopropanecarboxamide]	101 to 500	101 to 500
O=C(Nc1cc2c(-c3ccc4[nH]ccc4c3)cccn2n1)C1CC1 [Compound 4, N-(4-(1H-indol-5-yl)pyrazolo[1,5-a]pyridin-2-yl)cyclopropanecarboxamide]	0.01 to 100	0.01 to 100
O=C(NCCc1ccccc1)c1ccc(-c2cccn3nc(NC(=O)C4CC4)cc23)cc1 [Compound 5, 4-(2-(cyclopropanecarboxamido)pyrazolo[1,5-a]pyridin-4-yl)-N-phenethylbenzamide]	0.01 to 100	0.01 to 100
O=C(NCCOc1ccccc1)c1ccc(-c2cccn3nc(NC(=O)C4CC4)cc23)cc1 [Compound 6, 4-(2-(cyclopropanecarboxamido)pyrazolo[1,5-a]pyridin-4-yl)-N-(2-phenoxyethyl)benzamide]	101 to 500	0.01 to 100
COc1ccc(-c2cccn3nc(NC(=O)C4CC4)c(-c4ccccc4)c23)cc1 [Compound 7, N-(4-(4-methoxyphenyl)-3-phenylpyrazolo[1,5-a]pyridin-2-yl)cyclopropanecarboxamide]	> 1000	> 1000
N#Cc1ccc(COc2ccc(-c3cccn4nc(NC(=O)C5CC5)cc34)cc2)cn1 [Compound 9, N-(4-(4-((6-cyanopyridin-3-yl)methoxy)phenyl)pyrazolo[1,5-a]pyridin-2-yl)cyclopropanecarboxamide]	0.01 to 100	0.01 to 100
O=C(Nc1cc2c(-c3ccc(CN4CCS(=O)(=O)CC4)cc3)cccn2n1)C1CC1 [Compound 10, Cyclopropanecarboxylic acid {4-[4-(1,1-dioxo-thiomorpholin-4-ylmethyl)-phenyl]-pyrazolo[1,5-a]pyridin-2-yl}-amide]	0.01 to 100	0.01 to 100
O=C(Nc1nn2cccc(-c3ccc(CN4CCS(=O)(=O)CC4)cc3)c2c1F)C1CC1 [Compound 11, Cyclopropanecarboxylic acid {4-[4-(1,1-dioxo-thiomorpholin-4-ylmethyl)-phenyl]-3-fluoro-pyrazolo[1,5-a]pyridin-2-yl}-amide]	0.01 to 100	0.01 to 100
O=C(Nc1nn2cccc(-c3ccc(CN4CCS(=O)(=O)CC4)cc3)c2c1Br)C1CC1 [Compound 12, Cyclopropanecarboxylic acid {4-[4-(1,1-dioxo-thiomorpholin-4-ylmethyl)-phenyl]-3-bromo-pyrazolo[1,5-a]pyridin-2-yl}-amide]	0.01 to 100	0.01 to 100
O=C(Nc1nn2cccc(-c3ccc(CN4CCS(=O)(=O)CC4)cc3)c2c1Cl)C1CC1 [Compound 13, Cyclopropanecarboxylic acid {4-[4-(1,1-dioxo-thiomorpholin-4-ylmethyl)-phenyl]-3-chloro-pyrazolo[1,5-a]pyridin-2-yl}-amide]	0.01 to 100	0.01 to 100
O=C(Nc1cc2c(-c3ccc(C(=O)N4CCCCC4)cc3)cccn2n1)C1CC1 [Compound 14, Cyclopropanecarboxylic acid {4-[4-(piperidine-1-carbonyl)-phenyl]-pyrazolo[1,5-a]pyridin-2-yl}-amide]	0.01 to 100	0.01 to 100
CS(=O)(=O)N1CCN(Cc2ccc(-c3cccn4nc(NC(=O)C5CC5)cc34)cc2)CC1 [Compound 15, N-(4-(4-((4-(methylsulfonyl)piperazin-1-yl)methyl)phenyl)pyrazolo[1,5-a]pyridin-2-yl)cyclopropanecarboxamide]	0.01 to 100	0.01 to 100
CS(=O)(=O)C1CCN(Cc2ccc(-c3cccn4nc(NC(=O)C5CC5)cc34)cc2)CC1 [Compound 17, N-(4-(4-((4-(methylsulfonyl)piperidin-1-yl)methyl)phenyl)pyrazolo[1,5-a]pyridin-2-yl)cyclopropanecarboxamide]	0.01 to 100	0.01 to 100
CS(=O)(=O)C1CCN(Cc2ccc(-c3cccn4nc(NC(=O)C5CC5)cc34)cc2F)CC1 [Compound 18, N-(4-(3-fluoro-4-((4-(methylsulfonyl)piperidin-1-yl)methyl)phenyl)pyrazolo[1,5-a]pyridin-2-yl)cyclopropanecarboxamide]	0.01 to 100	0.01 to 100
CS(=O)(=O)C1CCN(Cc2ccc(-c3cccn4nc(NC(=O)C5CC5)c(Cl)c34)cc2)CC1 [Compound 19, N-(3-chloro-4-(4-((4-(methylsulfonyl)piperidin-1-yl)methyl)phenyl)pyrazolo[1,5-a]pyridin-2-yl)cyclopropanecarboxamide]	101 to 500	501 to 1000
CS(=O)(=O)C1CCN(Cc2ccc(-c3cccn4nc(NC(=O)C5CC5)c(Cl)c34)cc2F)CC1 [Compound 20, N-(3-chloro-4-(3-fluoro-4-((4-(methylsulfonyl)piperidin-1-yl)methyl)phenyl)pyrazolo[1,5-a]pyridin-2-yl)cyclopropanecarboxamide]	0.01 to 100	101 to 500
CC(=O)Nc1cc2c(-c3ccc(CN4CCN(S(C)(=O)=O)CC4)c(F)c3)cccn2n1 [Compound 21]	101 to 500	0.01 to 100
CS(=O)(=O)N1CCN(Cc2ccc(-c3cccn4nc(NC(=O)C5CC5)cc34)cn2)CC1 [Compound 23, N-(4-(6-((4-(methylsulfonyl)piperazin-1-yl)methyl)pyridin-3-yl)pyrazolo[1,5-a]pyridin-2-yl)cyclopropanecarboxamide]	101 to 500	101 to 500
CC(=O)Nc1cc2c(-c3ccc(CN4CCN(S(C)(=O)=O)C[C@H]4C)cc3)cccn2n1 [Compound 24, (R)-N-(4-(4-((2-methyl-4-(methylsulfonyl)piperazin-1-yl)methyl)phenyl)pyrazolo[1,5-a]pyridin-2-yl)acetamide]	501 to 1000	501 to 1000
CC(=O)Nc1cc2c(-c3ccc(CN4CCN(S(C)(=O)=O)CC4)cc3)cccn2n1 [Compound 25, N-(4-(4-((4-(methylsulfonyl)piperazin-1-yl)methyl)phenyl)pyrazolo[1,5-a]pyridin-2-yl)acetamide]	101 to 500	0.01 to 100
